Test results taken from patent US20130156791A1, “METHODS AND PHARMACEUTICAL COMPOSITIONS FOR THE TREATMENT OF HIV-1 INFECTIONS” (priority 2010, published 2013).

Key:
[1] = test system: HIV-1 envelope mediated hemifusion/fusion of HeLa Env^+ and HeLa CD4^+ cells; assay: Hemifusion and cell-cell fusion assays, HeLa Env+ / HeLa CD4+ coculture; assay type: cell-based, human; settings: absence or presence of 70 mM KCl for 3 h; 5 μM AMD3100 (Fig. 4d)
[2] = test system: PHA/IL-2 stimulated human lymphoblasts infected with HIVNDK; assay: Plasma membrane depolarization after HIVNDK infection (DiBac4(3), flow cytometry); assay type: cell-based; settings: 1 hour of HIVNDK infection (Fig. 4e)
[3] = test system: CD4^+CXCR4^+ cells infected with HIVNL43
CD4^+CXCR4^+ cells = assay: Plasma membrane depolarization of uninfected cells (DiBac4(3), flow cytometry); assay type: cell-based, human; settings: 70 mM KCl for 3 h (Fig. 4b,c)
HIVNDK = assay type: cell-based, HIV-1; settings: activated T-lymphoblasts (Fig. 2a, S2a)
HIVBaL = assay type: cell-based, HIV-1; settings: activated T-lymphoblasts (Fig. 2a, S2a)
[4] = test system: HIVNDK infected (PHA/IL-2 stimulated) lymphoblasts; assay type: cell-based, human; settings: HIVNDK (Fig. 6d)
HIVNL43 = assay: Target cell infectivity, Tat-inducible β-galactosidase reporter; assay type: cell-based, HIV-1; settings: HIVNL43, MOI 1, β-Gal reporter, 24 h after infection
[5] = test system: CD4^+CXCR4^+ target cells; assay type: cell-based, human
Description: Supplementary FIG. 1 Pannexin-1-dependent ATP release during HIV-1 infection and during HIV-1 Env-mediated fusion. (a) Effect of apyrase and AMD3100 on target cell viability. The viability of cells incubated for 3 hours with different concentrations of apyrase or AMD3100 (as indicated) and then infected with HIV-1NL43 for 2 days, was assessed by the MTT (3-[4,5-dimethylthiazol-2-yl]-2,5-diphenyl tetrazolium bromide) assay, as detailed in Methods. (b) Effects of apyrase and AMD3100 on ATP release detected during HIV-1 infection. […] After 2 hours of infection, ATP release was determined as described in Methods. […] Cell viability in c was assessed as in a (mean±s.e.m; n=3; *P<0.05). Fusion between HIV-1 Env-expressing cells (that also express Tat protein) and CD4^+CXCR4^+ target cells (that contain Tat-inducible β-galactosidase) was determined by measuring β-galactosidase (β-Gal) activity (d), as described in Methods. (e) Effects of Pannexin-1 knockdowns on HIV-1 Env-mediated fusion, as described in (c). Data in (a), (b), (c), (d) and (e) were determined in 3 independent experiments (mean±s.e.m; *P<0.05).

[6] = test system: CD4/CXCR4-expressing cells cocultured with Env-expressing cells; assay: HIV-1 envelope mediated conjugate formation (actin polymerization between two interacting cells); settings: coculture of Env-expressing and CD4/CXCR4-expressing cells (Fig. 1d)
Description: Error bars indicate SD of 3 independent determinations (means±SD; *P<0.05). (d) Effect of ATP depletion by apyrase on HIV-1 envelope mediated actin polymerization. Actin polymerization between two interacting cells was determined in 3 independent experiments (means±SEM; *P<0.05) by fluorescent microscopy (e) Localization of pannexin-1 at the contact site between primary HIV-1-infected lymphoblasts (green) and primary uninfected lymphoblasts, visualized by confocal microscopy.
HeLa cells stably transfected with the Env gene of HIV-1 LAI/IIIB (HeLa Env) and HeLa cells transfected with CD4 (HeLa CD4) were cultured alone or together at a 1:1 ratio in Dulbecco's modified Eagle's medium supplemented with 10% FCS, 2 mM L-glutamine and penicillin/streptomycin (Invitrogen) in the absence or in presence of tested molecules.

Row | Compound | fusion of Env+ and CD4+/CXCR4+ cells [1] | plasma membrane depolarization induced by HIV-1 infection [2] | replication of X4-tropic HIV (HIVNDK) | replication of R5-tropic HIV (HIVBaL) | CD4+ T cell depletion / death of activated CD4+ T lymphoblasts (7-AAD uptake) [4] | viral infection of lymphoblasts (intracellular p24 antigen) [4] | other results
1 | c1cc(CN2CCCNCCNCCCNCC2)ccc1CN1CCCNCCNCCCNCC1 [AMD3100] | reduced | abolished |  |  |  |  | ATP release during HIV-1 infection [3]: prevented ATP release
2 | [Cl-].[K+] [KCl] | enhanced the fusion |  |  |  |  |  | plasma membrane depolarization (CD4^+CXCR4^+ cells): strongly induced membrane depolarization
3 | Nc1ncnc2c1ncn2[C@@H](C=O)O[C@@H](C=O)COP(=O)(O)OP(=O)(O)OP(=O)(O)O [OxATP, oxidized ATP] |  |  | blocked the replication | blocked the replication |  |  | 
4 | Cc1nc(N=Nc2ccc(S(=O)(=O)O)cc2S(=O)(=O)O)c(COP(=O)(O)O)c(C=O)c1O [PPADS] |  |  | blocked the replication | blocked the replication | reduces | reduces viral infection | 
5 | Cc1ccc(C(=O)Nc2ccc(S(=O)(=O)O)c3cc(S(=O)(=O)O)cc(S(=O)(=O)O)c23)cc1NC(=O)c1cccc(NC(=O)Nc2cccc(C(=O)Nc3cc(C(=O)Nc4ccc(S(=O)(=O)O)c5cc(S(=O)(=O)O)cc(S(=O)(=O)O)c45)ccc3C)c2)c1 [suramin] |  |  | blocked the replication | blocked the replication | reduces | reduces viral infection | 
6 | apyrase |  | abolished |  |  |  |  | HIV-1 infection (target cell infectivity) (HIVNL43): prevented HIV-1 infection; toxicity / target cell viability [5]: non-toxic; conjugate formation revealed by actin polymerization between two interacting cells [6]: abolished conjugate formation
